In patent US11839641B2, “Methods and compositions for treatment of lysosomal storage disorders” (JME Group Associates Inc., priority 2020, dated 2023):

Assays:
[1] = target: T1, Barley GAA (high-isoelectric-point (pI) α-glucosidase) (Hordeum vulgare, UniProt Q43763); conditions: cited from earlier work
T1 sequence (Q43763 24-877): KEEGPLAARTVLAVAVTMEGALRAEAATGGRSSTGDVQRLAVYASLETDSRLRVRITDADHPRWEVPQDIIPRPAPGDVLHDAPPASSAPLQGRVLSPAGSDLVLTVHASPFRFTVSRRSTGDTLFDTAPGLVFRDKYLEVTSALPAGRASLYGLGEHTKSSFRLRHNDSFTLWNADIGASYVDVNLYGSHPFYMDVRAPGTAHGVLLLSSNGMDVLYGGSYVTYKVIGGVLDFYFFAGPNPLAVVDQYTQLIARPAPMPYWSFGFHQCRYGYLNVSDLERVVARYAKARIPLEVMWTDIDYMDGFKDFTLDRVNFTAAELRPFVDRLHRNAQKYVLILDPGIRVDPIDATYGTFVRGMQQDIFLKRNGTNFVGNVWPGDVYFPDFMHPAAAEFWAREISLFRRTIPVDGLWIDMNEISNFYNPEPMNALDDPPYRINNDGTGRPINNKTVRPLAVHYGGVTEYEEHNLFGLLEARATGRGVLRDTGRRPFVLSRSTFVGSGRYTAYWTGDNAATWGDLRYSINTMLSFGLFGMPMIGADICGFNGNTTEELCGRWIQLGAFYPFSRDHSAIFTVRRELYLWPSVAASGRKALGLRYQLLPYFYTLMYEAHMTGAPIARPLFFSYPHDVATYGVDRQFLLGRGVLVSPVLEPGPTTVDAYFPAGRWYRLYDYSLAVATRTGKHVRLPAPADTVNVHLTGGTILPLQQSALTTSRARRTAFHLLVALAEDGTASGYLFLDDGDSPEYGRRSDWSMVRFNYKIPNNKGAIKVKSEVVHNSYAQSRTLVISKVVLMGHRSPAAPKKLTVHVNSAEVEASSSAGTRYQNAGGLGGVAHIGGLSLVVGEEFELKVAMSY

human white blood cells = experiment: Uptake of GGB crude lysate by human white blood cells; assay type: cell-based; conditions: 18 hrs at 37° C.
Description: (§1) Uptake of a crude lysate of 7-8 day GGB by white blood cells (“WBC”) from humans and GAA KO mice was tested. Each treatment was performed±5 mM mannose-6 phosphate. Mannose-6 phosphate treatment blocks uptake by the M-6-P receptor (Martiniuk et al., “Further Studies of The Structure of Human Placental Acid Alpha-Glucosidase,” Arch Biochem Biophys 231:454-460 (1984); Martiniuk et al., “Production of a Functional Human Acid Maltase in Tobacco Seeds: Biochemical Analysis, Uptake by Human GSDII Cells, and in vivo Studies in GAA Knockout Mice,” Appl Biochem Biotechnol 171:916-926 (2013), each of which is hereby incorporated by reference in their entirety). Human placental GAA (hGAA) was used as a positive control. Anti-coagulate-EDTA was added at 1.5 to 2.0 mg/ml of whole blood. 0.15 ml of human and mouse KO blood was used and a 14×RBC lysing solution (NH4Cl (ammonium chloride)—8.02 g; NaHCO3 (sodium bicarbonate)—0.84 g; EDTA (disodium)—0.37 g to 100 ml with water) was added in a 1.5 ml microfuge tube, inverted for 10 minutes at RT until the liquid was clear red followed by spinning for 1 minute in a microfuge. The supernatant was decanted, cells were washed with phosphate buffered saline (PBS) and re-suspend in 2.4 ml complete DMEM-10% FBS (Life Technologies). […]

[2] = system: GAA KO mice white blood cells; experiment: Uptake of GGB crude lysate by GAA KO mouse white blood cells ± mannose-6-phosphate; assay type: cell-based; conditions: 5 mM mannose-6-phosphate
Description: as §1

GAA KO mice = conditions: cited from earlier work

## C[C@H]1O[C@H](O[C@H]2[C@H](O)[C@@H](O)[C@@H](O[C@H]3[C@H](O)[C@@H](O)C(O)O[C@@H]3CO)O[C@@H]2CO)[C@H](O)[C@@H](O)[C@@H]1N[C@H]1C=C(CO)[C@@H](O)[C@H](O)[C@H]1O (stereo partly drawn) [Acarbose]
[1]
  Ki: 1500 nM

## placental hGAA: Human placental GAA (hGAA) used as a positive control
Human white blood cells
  GAA/NAG ratio compared to mock treated cells: higher ratios of GAA/NAG
[2]
  uptake with mannose-6-phosphate: blocked

## rhGAA: recombinant human GAA
GAA KO mice; 20 mg/kg/wk for 5 mo., skeletal muscle
  Glycogen reduction: < 50%
GAA KO mice; 20 mg/kg/wk for 5 mo.
  enzyme uptake by skeletal muscle compared to liver and heart: minimal
GAA KO mice; 100 mg/kg/wk
  glycogen clearance in skeletal muscle: ~75%
